For one test, the system named is c-Myc. The test is described as follows: Total c-Myc relative quantification by flow cytometry in cancer cell lines. Type of test: cell-based, human. The settings on record: 24 h. As for the experimental part: (§1) The effect of these triazole derivates on c-Myc and PD-L1 was measured in three different cancer cell lines (HT-29, MCF-7, A-549) by flow cytometry. Thus, cells were incubated for 24 h with the corresponding compound at a concentration of 100 μM. Dimethyl sulfoxide (DMSO)-treated cells were used as the negative control, and a PD-L1 inhibitor, BMS-8 [29, 31], was used as a reference control. After permeabilization and fixation, cells were treated with anti-PD-L1 conjugated to AlexaFluor®647 and anti-c-Myc conjugated to fluorescein to determine the amount of both targets related to the negative control. Table 1 show the results in terms of the percentage of the detected target in relation to the negative control. This assay was carried out on cancer cell lines HT-29, MCF-7, and A-549.
(§2) To study the effect of the compounds on every biological target in cancer cell lines, the compounds were used at a 100 µM dose.
(§3) For the assay, 10^5 cells per well were incubated for 24 h with the corresponding dose of the tested compound in a total volume of 500 μL of their growth media.
(§4) To detect total PD-L1 and c-Myc, after the cell treatments, they were collected and fixed with 4% in PBS paraformaldehyde. After fixation, a treatment with 0,5% in PBS Triton™ X-100 was performed, and finally, cells were stained with FITC Mouse monoclonal Anti-c-Myc (ab223913) and Alexa Fluor® 647 Rabbit monoclonal Anti-PD-L1 (ab215251).
Background: Flow cytometry measures light scatter and fluorescence of single cells or particles in a stream.

In the next test the test system is HT-29. The test is described as follows: HT-29 cell viability in co-culture with Jurkat T cells (flow cytometry count). Type of test: cell-based, human. Conditions: 24 h; for viability at 100 µM: Homo sapiens, HT-29/Jurkat T co-culture, IFN-γ stimulated, read-out: percentage of living HT-29 cells relative to non-treated co-cultures. As for the experimental part: (§5) The effect of the synthesized compounds on tumor cell proliferation in the presence of PD-1-expressing Jurkat T cells was also studied. This assay was carried out, as in the previous experiments, in the HT29, MCF7, and A549 cell lines (see Table 4). Interferon γ-stimulated cancer cells were treated for 24 h with the compounds at 100 μM in presence of Jurkat T cells. Then, cells were counted using flow cytometry. The percentage of living cells relative to non-treated co-cultures (control) was established for both cancer and immune cells in every co-culture.
(§6) To study the effect of the compounds on the cell viability in co-culture with Jurkat T cells or THP-1 cells, 10^5 or 2 × 10^5 of the corresponding cancer cells line per well were seeded and incubated for 24 h, then the medium was changed by one cell culture medium supplemented with IFN-γ (10 ng/mL; human, Invitrogen®) and containing 5 × 10^5 or 10^5 Jurkat T cells or THP-1, respectively, per well and 100 µM of the corresponding compound or DMSO for the […] control. After 24 h/48 h of incubation, supernatants were collected to determine Jurkat T or THP-1 living cells, and on the other hand, corresponding cancer cells were collected with trypsin. Both types of suspension cells were fixed with 4% in PBS paraformaldehyde and counted by flow cytometry.

For another test, the target named is PD-L1 (Homo sapiens, UniProt Q9NZQ7). The test is described as follows: Total PD-L1 relative quantification by flow cytometry in cancer cell lines. Type of test: cell-based. The arrangement: Alexa Fluor® 647 Rabbit monoclonal Anti-PD-L1 (ab215251); endogenous in cells; host or cells: HT-29. The settings on record: 24 h, total PD-L1 relative to negative control (DMSO). As for the experimental part:
as §1, §2, §3, §4

Another test deals with Jurkat T cells. Description: Jurkat T cell viability in co-culture with cancer cells (flow cytometry count). Type of test: cell-based. Conditions: Homo sapiens, 24 h, read-out: percentage of living Jurkat cells relative to non-treated co-cultures. As for the experimental part:
as §5, §6

Another test deals with MCF-7. Description: MCF-7 cell viability in co-culture with Jurkat T cells (flow cytometry count). Type of test: cell-based, human. The settings on record: 24 h; for viability at 100 µM: Homo sapiens, MCF7, MCF-7/Jurkat T co-culture, IFN-γ stimulated, read-out: percentage of living MCF-7 cells relative to non-treated co-cultures. The procedure: as §5, §6
Another test concerns membrane VEGFR-2. Description: Membrane VEGFR-2 relative quantification by flow cytometry in cancer cells co-cultured with Jurkat T cells. Type of test: cell-based, human. Conditions: 100 μM, 24 h, relative to non-treated co-cultures. As for the experimental part:
(§7) We determined by flow cytometry the effect of these compounds on the expression of membrane PD-L1 in cancer cells when they were co-cultured with immune cells. Thus, interferon γ-stimulated cancer cells were treated for 24 h with the compounds at 100 μM in presence of Jurkat T cells. Then, cells were fixed and treated with anti-PD-L1 conjugated to AlexaFluor®647. We took advantage of the versatility of flow cytometry to simultaneously measure the expression of membrane VEGFR-2 by using anti-VEGFR-2 conjugated to fluorescein.
(§8) To study the effect of the compounds on every biological target in co-cultured cancer cell lines, the compounds were incubated for 24h as described before.
(§9) To detect membrane PD-L1 and VEGFR-2, after the cell treatments, they were collected, fixed with 4% in PBS paraformaldehyde, and stained with FITC Mouse monoclonal Anti-Human VEGFR-2 (ab184903) and Alexa Fluor® 647 Rabbit monoclonal Anti-PD-L1 (ab215251).

Another test addresses T1, membrane PD-L1 (Homo sapiens, UniProt Q9NZQ7).
T1 construct: Alexa Fluor® 647 Rabbit monoclonal Anti-PD-L1 (ab215251); endogenous in cells; host or cells: HT-29, MCF-7, A-549 (A17: MCF-7 only; A14: IFN-gamma-stimulated cancer cells co-cultured with Jurkat T cells)
Description: Membrane PD-L1 relative quantification by flow cytometry in cancer cells co-cultured with Jurkat T cells. It is filed as cell-based. Conditions: Jurkat, 24 h; for remaining activity at 100 µM: relative to non-treated co-cultures, read-out: % PDL1 (membrane); for inhibition at 100 µM: HT-29 co-cultured with Jurkat T cells, read-out: membrane PD-L1 inhibition rate. As for the experimental part: as §7, §8, §9

The subject of a further test is A-549. The test is described as follows: A-549 cell viability in co-culture with Jurkat T cells (flow cytometry count). Type of test: cell-based, human. Conditions: 24 h; for viability at 100 µM: Homo sapiens, A549, A-549/Jurkat T co-culture, IFN-γ stimulated, read-out: percentage of living A-549 cells relative to non-treated co-cultures; for inhibition rate of A-549 cell viability: co-cultured with Jurkat T cells, 100 μM. The procedure: as §5, §6

Where [1] appears, read: A-549, 100 µM, relative to negative control (DMSO).
Setting [2] is: HT-29, 100 µM, detected target relative to negative control (DMSO).
The mark [3] stands for this setting: MCF-7, 100 µM, relative to negative control (DMSO).
The mark [4] stands for this setting: co-cultured with Jurkat T cells, 100 μM.
Where [5] appears, read: A549 co-cultured with Jurkat T cells.
[6] abbreviates: HT29 co-cultured with Jurkat T cells.
Setting [7] is: MCF7 co-cultured with Jurkat T cells.

SMILES strings stand for the structures. Where two headings read alike, the source gives them in different places.

PD-L1, sequence (Q9NZQ7 19-290): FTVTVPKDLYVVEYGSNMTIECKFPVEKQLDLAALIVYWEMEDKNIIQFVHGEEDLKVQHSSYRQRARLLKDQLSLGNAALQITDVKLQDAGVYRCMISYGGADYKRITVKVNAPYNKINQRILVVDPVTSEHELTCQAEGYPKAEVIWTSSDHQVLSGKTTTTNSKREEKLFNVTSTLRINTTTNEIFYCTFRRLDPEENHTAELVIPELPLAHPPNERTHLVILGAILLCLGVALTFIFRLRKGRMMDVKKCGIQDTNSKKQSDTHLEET
T1 sequence (Q9NZQ7 19-290): as above

For `COc1cccc(-c2cn(CCc3ccc(CCO)cc3)nn2)c1` [Compound 12, 2-(4-(2-(4-(3-methoxyphenyl)-1H-1,2,3-triazol-1-yl)ethyl)phenyl)ethan-1-ol], the results for the “% c-Myc” value in the test with c-Myc (setting [1]), in the test on c-Myc (setting [2]) and with c-Myc (setting [3]) were 113 ± 9%, 84 ± 2% and 81 ± 4%, respectively. For the same compound, the viability at 100 µM was 60 ± 3% in the test with HT-29; 83 ± 6% with Jurkat T cells (A-549/Jurkat T co-culture); 104 ± 5% in the test with Jurkat T cells (HT-29/Jurkat T co-culture); 123 ± 11% in the test with Jurkat T cells (MCF-7/Jurkat T co-culture); 78 ± 4% with MCF-7; 86 ± 2% in the test on A-549. The “inhibition rate of HT-29 cell viability” value in the test with HT-29 (setting [4]) is listed as “around 40%”. Also, the remaining activity at 100 µM is 67 ± 8% at PD-L1 (A549, A-549, 100 µM); 157 ± 6% at PD-L1 (HT-29, 100 µM); 88 ± 1% on PD-L1 (MCF7, MCF-7, 100 µM); 77 ± 3% on membrane PD-L1 (setting [5]); 88 ± 5% at membrane PD-L1 (setting [6]); 41 ± 2% on membrane PD-L1 (setting [7]). Further, the “%VEGFR2 (membrane)” value in the test with membrane VEGFR-2 (setting [5]) worked out at 99 ± 6%; with membrane VEGFR-2 (setting [6]) it was 113 ± 4%; in the test with membrane VEGFR-2 (setting [7]) it was 103 ± 8%. Moreover, in the test with A-549, the “inhibition rate of A-549 cell viability” value is “around 30%”.

Turning to `OCCc1ccc(CCn2cc(-c3ccccc3Br)nn2)cc1` [Compound 8, 2-(4-(2-(4-(2-bromophenyl)-1H-1,2,3-triazol-1-yl)ethyl)phenyl)ethan-1-ol], the “% c-Myc” value is 48 ± 7% with c-Myc (setting [1]), 88 ± 2% in the test with c-Myc (setting [2]) and 92 ± 6% in the test on c-Myc (setting [3]). Further, the viability at 100 µM in the test with HT-29 stood at 97 ± 10%; in the test on Jurkat T cells (A-549/Jurkat T co-culture), 88 ± 34%; in the test with Jurkat T cells (HT-29/Jurkat T co-culture), 95 ± 5%; in the test on Jurkat T cells (MCF-7/Jurkat T co-culture), 164 ± 9%; in the test on MCF-7 it was 49 ± 10%; in the test on A-549, 72 ± 9%. Besides, the remaining activity at 100 µM at PD-L1 (A549, A-549, 100 µM) came to 44 ± 8%; on PD-L1 (HT-29, 100 µM), 115 ± 5%; at PD-L1 (MCF7, MCF-7, 100 µM), 81 ± 1%; at membrane PD-L1 (setting [5]), 84 ± 8%; at membrane PD-L1 (setting [6]), 58 ± 6%; at membrane PD-L1 (setting [7]), 46 ± 9%. The entries for the “%VEGFR2 (membrane)” value in the test with membrane VEGFR-2 (setting [5]), in the test on membrane VEGFR-2 (setting [6]) and in the test with membrane VEGFR-2 (setting [7]) were 104 ± 5%, 97 ± 4% and 108 ± 6%, respectively. Also, at membrane PD-L1, the inhibition (in general, how much of the control response was suppressed) at 100 µM is 40 to 50%. Also, in the test with A-549, the “inhibition rate of A-549 cell viability” value is “around 30%”.

As for `COc1ccccc1-c1cn(CCc2ccc(CCO)cc2)nn1` [Compound 14, 2-(4-(2-(4-(2-methoxyphenyl)-1H-1,2,3-triazol-1-yl)ethyl)phenyl)ethan-1-ol], the “% c-Myc” value with c-Myc (setting [1]) is 85 ± 10%; with c-Myc (setting [2]) it was 67 ± 4%; with c-Myc (setting [3]) it was 71 ± 5%. The viability at 100 µM with HT-29 is 67 ± 10%; with Jurkat T cells (A-549/Jurkat T co-culture) it was 109 ± 20%; in the test with Jurkat T cells (HT-29/Jurkat T co-culture), 106 ± 9%; in the test with Jurkat T cells (MCF-7/Jurkat T co-culture) it was 127 ± 6%; in the test with MCF-7, 47 ± 1%; in the test with A-549, 78 ± 9%. The remaining activity at 100 µM amounted to 54 ± 7% at PD-L1 (A549, A-549, 100 µM); 138 ± 2% on PD-L1 (HT-29, 100 µM); 71% at PD-L1 (MCF7, MCF-7, 100 µM); 85 ± 3% on membrane PD-L1 (setting [5]); 61 ± 3% at membrane PD-L1 (setting [6]); 80 ± 5% at membrane PD-L1 (setting [7]). The “inhibition rate of MCF-7 cell viability” value with MCF-7 (setting [4]) is recorded as “around 60%”. Moreover, the “%VEGFR2 (membrane)” value came out at 106 ± 1% in the test with membrane VEGFR-2 (setting [5]), 97 ± 6% in the test with membrane VEGFR-2 (setting [6]) and 91 ± 6% in the test with membrane VEGFR-2 (setting [7]). The inhibition at 100 µM at membrane PD-L1 fell in the range of 40 to 50%. In addition, in the test with A-549, the “inhibition rate of A-549 cell viability” value is listed as “around 30%”.

(Values after article PMC9917184, “Synthesis and Biological Evaluation of Potential Oncoimmunomodulator Agents” (International Journal of Molecular Sciences, 2023).)
